Test results published in the NIST ThermoML archive (doi:10.1016/j.jct.2017.11.017).

Columns and labels:
[1] = 101.33 kPa, Liquid, Vibrating tube method
[2] = activity coefficient (dimensionless); of the first substance listed, at infinite dilution; xn = mol fraction of the nth substance listed; conditions: 101.33 kPa, Liquid, Chromatography, x1 = 0

C[N+]1(CCCO)CCOCC1.N#C[N-]C#N [4-(3-hydroxypropyl)-4-methylmorpholinium dicyanamide]
[1]
Conditions | mass density [kg/m3]
298.15 K | 1175.4
303.15 K | 1172.4
308.15 K | 1169.4
313.15 K | 1166.5
318.15 K | 1163.6
323.15 K | 1160.7
328.15 K | 1157.9
333.15 K | 1155
338.15 K | 1152.1
343.15 K | 1149.3
348.15 K | 1146.5
353.15 K | 1143.7
358.15 K | 1141
363.15 K | 1138.2
368.15 K | 1135.5

C[n+]1ccn(CCCO)c1.N#CN=C=[N-] [1-(3-hydroxypropyl)-3-methylimidazolium dicyanamide]
[1]
Conditions | mass density [kg/m3]
298.15 K | 1171
303.15 K | 1167.8
308.15 K | 1164.6
313.15 K | 1161.4
318.15 K | 1158.2
323.15 K | 1155.1
328.15 K | 1152
333.15 K | 1148.9
338.15 K | 1145.8
343.15 K | 1142.7
348.15 K | 1139.6
353.15 K | 1136.6
358.15 K | 1133.6
363.15 K | 1130.6
368.15 K | 1127.6

c1ccccc1 [benzene] + C[N+]1(CCCO)CCOCC1.N#C[N-]C#N
[2]
Conditions | activity coefficient
318.15 K | 6.97
328.15 K | 7.09
338.15 K | 7.2
348.15 K | 7.33
358.15 K | 7.41
368.15 K | 7.57

CCC[N+](=O)[O-] [1-nitropropane] + C[N+]1(CCCO)CCOCC1.N#C[N-]C#N
[2]
Conditions | activity coefficient
318.15 K | 3.26
328.15 K | 3.35
338.15 K | 3.47
348.15 K | 3.55
358.15 K | 3.65
368.15 K | 3.74

CCC(=O)CC [pentan-3-one] + C[n+]1ccn(CCCO)c1.N#CN=C=[N-]
[2]
Conditions | activity coefficient
318.15 K | 5.1
328.15 K | 5.29
338.15 K | 5.54
348.15 K | 5.71
358.15 K | 5.95
368.15 K | 6.11

CCCOCCC [dipropyl ether] + C[n+]1ccn(CCCO)c1.N#CN=C=[N-]
[2]
Conditions | activity coefficient
318.15 K | 82.3
328.15 K | 79.9
338.15 K | 77.7
348.15 K | 75.8
358.15 K | 74.4
368.15 K | 72.5

C#CCCCCCC [1-octyne] + C[N+]1(CCCO)CCOCC1.N#C[N-]C#N
[2]
Conditions | activity coefficient
308.15 K | 151
318.15 K | 145
328.15 K | 138
338.15 K | 133
348.15 K | 128
358.15 K | 122
368.15 K | 118
